Test results published in PubChem BioAssay AID1259407 (Chemical Carcinogenesis Research Information System (CCRIS), 2018).
The source made the active and inactive calls. The rule behind the calls is not given here.

Tested on: CCRIS mutagenicity, Ames/micronucleus/aberration tests
Assay: CCRIS mutagenicity studies

Compound: ClC(Cl)(Cl)Cl
- mutagenic call (End Point: IN VITRO CHROMOSOMAL ABERRATIONS, Test System: CHO-LB CELLS, Metabolic Activation: NONE): inactive; negative
- mutagenic call (End Point: IN VITRO CHROMOSOMAL ABERRATIONS, Test System: CHO-LB CELLS, Metabolic Activation: RAT, LIVER, S-9, AROCLOR 1254): inactive; negative
- mutagenic call (End Point: IN VIVO MICRONUCLEUS, Test System: BONE MARROW POLYCHROMATIC ERYTHROCYTES, Species: MOUSE, Strain/Sex: MALE, Route: IP INJECTION): active; positive
- mutagenic call (End Point: In vitro chromosomal aberrations, Test System: Chinese hamster lung (CHL/IU) cells, Metabolic Activation: Rat, Liver, S9, Phenobarbital and 5,6-benzoflavone): inactive; negative
- mutagenic call (Test System: AMES SALMONELLA TYPHIMURIUM, Strain/Indicator: TA97, Metabolic Activation: HAMSTER, LIVER, S-9, AROCLOR 1254 (10%), Method: PREINCUBATION): inactive; negative
- mutagenic call (Test System: AMES SALMONELLA TYPHIMURIUM, Strain/Indicator: TA97, Metabolic Activation: HAMSTER, LIVER, S-9, AROCLOR 1254 (30%), Method: PREINCUBATION): inactive; negative
- mutagenic call (Test System: AMES SALMONELLA TYPHIMURIUM, Strain/Indicator: TA97, Metabolic Activation: NONE, Method: PREINCUBATION): inactive; negative
- mutagenic call (Test System: AMES SALMONELLA TYPHIMURIUM, Strain/Indicator: TA97, Metabolic Activation: NONE, Method: STANDARD PLATE): inactive; negative
- mutagenic call (Test System: AMES SALMONELLA TYPHIMURIUM, Strain/Indicator: TA97, Metabolic Activation: RAT, LIVER, S-9, AROCLOR 1254 (10%), Method: PREINCUBATION): inactive; negative
- mutagenic call (Test System: AMES SALMONELLA TYPHIMURIUM, Strain/Indicator: TA97, Metabolic Activation: RAT, LIVER, S-9, AROCLOR 1254 (30%), Method: PREINCUBATION): inactive; negative
- mutagenic call (Test System: AMES SALMONELLA TYPHIMURIUM, Strain/Indicator: TA97, Metabolic Activation: RAT, LIVER, S-9, AROCLOR 1254, Method: STANDARD PLATE): inactive; negative
- mutagenic call (Test System: AMES SALMONELLA TYPHIMURIUM, Strain/Indicator: TA98, Metabolic Activation: HAMSTER, LIVER, S-9, AROCLOR 1254 (10%), Method: PREINCUBATION): inactive; negative
- mutagenic call (Test System: AMES SALMONELLA TYPHIMURIUM, Strain/Indicator: TA98, Metabolic Activation: HAMSTER, LIVER, S-9, AROCLOR 1254 (30%), Method: PREINCUBATION): inactive; negative
- mutagenic call (Test System: AMES SALMONELLA TYPHIMURIUM, Strain/Indicator: TA98, Metabolic Activation: NONE, Method: GAS EXPOSURE): active; positive
- mutagenic call (Test System: AMES SALMONELLA TYPHIMURIUM, Strain/Indicator: TA98, Metabolic Activation: NONE, Method: PREINCUBATION): inactive; negative
- mutagenic call (Test System: AMES SALMONELLA TYPHIMURIUM, Strain/Indicator: TA98, Metabolic Activation: RAT LIVER S-9, PHENOBARBITOL AND 5,6-BENZOFLAVONE, Method: GAS EXPOSURE): inactive; negative
- mutagenic call (Test System: AMES SALMONELLA TYPHIMURIUM, Strain/Indicator: TA98, Metabolic Activation: RAT, LIVER, S-9, AROCLOR 1254 (10%), Method: PREINCUBATION): inactive; negative
- mutagenic call (Test System: AMES SALMONELLA TYPHIMURIUM, Strain/Indicator: TA98, Metabolic Activation: RAT, LIVER, S-9, AROCLOR 1254 (30%), Method: PREINCUBATION): inactive; negative
- mutagenic call (Test System: AMES SALMONELLA TYPHIMURIUM, Strain/Indicator: TA98, Metabolic Activation: RAT, LIVER, S-9, AROCLOR 1254, Method: STANDARD PLATE): inactive; negative
- mutagenic call (Test System: AMES SALMONELLA TYPHIMURIUM, Strain/Indicator: TA100, Metabolic Activation: HAMSTER, LIVER, S-9, AROCLOR 1254 (10%), Method: PREINCUBATION): inactive; negative
- mutagenic call (Test System: AMES SALMONELLA TYPHIMURIUM, Strain/Indicator: TA100, Metabolic Activation: HAMSTER, LIVER, S-9, AROCLOR 1254 (30%), Method: PREINCUBATION): inactive; negative
- mutagenic call (Test System: AMES SALMONELLA TYPHIMURIUM, Strain/Indicator: TA100, Metabolic Activation: NONE, Method: PREINCUBATION): inactive; negative
- mutagenic call (Test System: AMES SALMONELLA TYPHIMURIUM, Strain/Indicator: TA100, Metabolic Activation: RAT, LIVER, S-9, AROCLOR 1254 (10%), Method: PREINCUBATION): inactive; negative
- mutagenic call (Test System: AMES SALMONELLA TYPHIMURIUM, Strain/Indicator: TA100, Metabolic Activation: RAT, LIVER, S-9, AROCLOR 1254 (30%), Method: PREINCUBATION): inactive; negative
- mutagenic call (Test System: AMES SALMONELLA TYPHIMURIUM, Strain/Indicator: TA1535, Metabolic Activation: HAMSTER, LIVER, S-9, AROCLOR 1254 (10%), Method: PREINCUBATION): inactive; negative
- mutagenic call (Test System: AMES SALMONELLA TYPHIMURIUM, Strain/Indicator: TA1535, Metabolic Activation: HAMSTER, LIVER, S-9, AROCLOR 1254 (30%), Method: PREINCUBATION): inactive; negative
- mutagenic call (Test System: AMES SALMONELLA TYPHIMURIUM, Strain/Indicator: TA1535, Metabolic Activation: NONE, Method: PREINCUBATION): inactive; negative
- mutagenic call (Test System: AMES SALMONELLA TYPHIMURIUM, Strain/Indicator: TA1535, Metabolic Activation: NONE, Method: STANDARD PLATE): inactive; negative
- mutagenic call (Test System: AMES SALMONELLA TYPHIMURIUM, Strain/Indicator: TA1535, Metabolic Activation: RAT, LIVER, S-9, AROCLOR 1254 (10%), Method: PREINCUBATION): inactive; negative
- mutagenic call (Test System: AMES SALMONELLA TYPHIMURIUM, Strain/Indicator: TA1535, Metabolic Activation: RAT, LIVER, S-9, AROCLOR 1254 (30%), Method: PREINCUBATION): inactive; negative
- mutagenic call (Test System: AMES SALMONELLA TYPHIMURIUM, Strain/Indicator: TA1535, Metabolic Activation: RAT, LIVER, S-9, AROCLOR 1254, Method: STANDARD PLATE): active; positive
- mutagenic call (Test System: AMES SALMONELLA TYPHIMURIUM, Strain/Indicator: TA1537, Metabolic Activation: HAMSTER, LIVER, S-9, AROCLOR 1254 (10 OR 30%), Method: PREINCUBATION): inactive; negative
- mutagenic call (Test System: AMES SALMONELLA TYPHIMURIUM, Strain/Indicator: TA1537, Metabolic Activation: NONE, Method: PREINCUBATION): inactive; negative
- mutagenic call (Test System: AMES SALMONELLA TYPHIMURIUM, Strain/Indicator: TA1537, Metabolic Activation: NONE, Method: STANDARD PLATE): active; positive
- mutagenic call (Test System: AMES SALMONELLA TYPHIMURIUM, Strain/Indicator: TA1537, Metabolic Activation: RAT, LIVER, S-9, AROCLOR 1254 (10 OR 30%), Method: PREINCUBATION): inactive; negative
- mutagenic call (Test System: Ames Salmonella typhimurium, Strain/Indicator: TA98, Metabolic Activation: None, Method: Gas exposure method): active; positive
- mutagenic call (Test System: Ames Salmonella typhimurium, Strain/Indicator: TA98, Metabolic Activation: Rat, Liver, S9, Sodium phenobarbital and 5,6-benzoflavone (10%), Method: Gas exposure method): inactive; negative
- mutagenic call (Test System: Ames Salmonella typhimurium, Strain/Indicator: TA100, Metabolic Activation: None, Method: Gas exposure method): inactive; negative
- mutagenic call (Test System: Ames Salmonella typhimurium, Strain/Indicator: TA100, Metabolic Activation: Rat, Liver, S9, Sodium phenobarbital and 5,6-benzoflavone (10%), Method: Gas exposure method): inactive; negative
- mutagenic call (Test System: Ames Salmonella typhimurium, Strain/Indicator: TA1535, Metabolic Activation: None, Method: Gas exposure method): inactive; negative
- mutagenic call (Test System: Ames Salmonella typhimurium, Strain/Indicator: TA1535, Metabolic Activation: Rat, Liver, S9, Sodium phenobarbital and 5,6-benzoflavone (10%), Method: Gas exposure method): inactive; negative
- mutagenic call (Test System: Ames Salmonella typhimurium, Strain/Indicator: TA1537, Metabolic Activation: None, Method: Gas exposure method): inactive; negative
- mutagenic call (Test System: Ames Salmonella typhimurium, Strain/Indicator: TA1537, Metabolic Activation: Rat, Liver, S9, Sodium phenobarbital and 5,6-benzoflavone (10%), Method: Gas exposure method): inactive; negative
- mutagenic call (Test System: E. COLI, Strain/Indicator: WP2UVRA/PKM101, Metabolic Activation: NONE, Method: GAS EXPOSURE): active; positive
- mutagenic call (Test System: E. COLI, Strain/Indicator: WP2UVRA/PKM101, Metabolic Activation: RAT LIVER S-9, PHENOBARBITOL AND 5,6-BENZOFLAVONE, GLUTATHIONE-SUPPLEMENTED, Method: GAS EXPOSURE): active; positive
- mutagenic call (Test System: E. COLI, Strain/Indicator: WP2UVRA/PKM101, Metabolic Activation: RAT LIVER S-9, PHENOBARBITOL AND 5,6-BENZOFLAVONE, Method: GAS EXPOSURE): active; positive
- mutagenic call (Test System: MOUSE LYMPHOMA, Strain/Indicator: L5178Y (TK+/TK-), Metabolic Activation: RAT, LIVER, S-9, AROCLOR 1254, Method: SUSPENSION/PLATE): inactive; negative
- mutagenic call (Test System: UDS RAT HEPATOCYTES, Strain/Indicator: BROMODEOXYURIDINE INCORP, Metabolic Activation: NONE, Method: FLOW CYTOMETRIC ANALYSIS): inactive; negative
- mutagenic call (Test System: UDS RAT HEPATOCYTES, Strain/Indicator: THY INCORP, Metabolic Activation: NONE, Method: AUTORADIOGRAPHY): inactive; negative
